# In patent publication US20250388584A1, “TPK AGONIST AND METHOD FOR TREATING NEURODEGENERATIVE DISEASES USING SAME” (SHANGHAI RAISING PHARMACEUTICAL CO., LTD., priority 2022, published 2025):
# Counter-ions that a name gives are not always drawn. Like-named read-outs stand apart in the source and are kept apart here.
# Molecular target: TPK enzyme (Homo sapiens (Human), UniProt Q9H3S4)
# Experiment: TPK enzyme activity test
# Assay type: biochemical
# Settings: for Emax: calculated with the effect of DMSO on TPK enzyme activity as 100%; for EC50: promoting effect on TPK enzyme activity
# Chain of TPK enzyme (Q9H3S4 whole entry): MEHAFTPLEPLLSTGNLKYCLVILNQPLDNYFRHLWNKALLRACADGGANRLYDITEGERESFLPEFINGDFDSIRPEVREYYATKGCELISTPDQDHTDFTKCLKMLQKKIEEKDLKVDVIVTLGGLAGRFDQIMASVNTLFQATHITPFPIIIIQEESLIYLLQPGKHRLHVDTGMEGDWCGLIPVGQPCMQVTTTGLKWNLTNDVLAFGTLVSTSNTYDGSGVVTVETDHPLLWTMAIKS
smiles,measurement,setting,value
"Cc1ccc2[nH]c3c(=O)n(CCC(=O)N4CCN(c5ccc(Cl)cc5Cl)CC4)cnc3c2c1 [Compound 7, 3-(3-(4-(2,4-dichlorophenyl)piperazin-1-yl)-3-oxopropyl)-8-methyl-3,5-dihydro-4H-pyrimido[5,4-b]indol-4-one]",Emax,read-out: Emax,148%
same,EC50,,2320 nM
Cc1ccc2[nH]c3c(=O)n(CCC(=O)N4CCN(c5ccc(F)cc5)CC4)cnc3c2c1 [Compound 46],Emax,,122.50%
"O=C1CCCCN1CCCN1c2ccccc2Sc2ccccc21 [Compound 186, 1-(3-(10H-phenothiazin-10-yl)propyl)piperidin-2-one]",Emax,read-out: Emax,176%
same,EC50,,2660 nM
"O=C(CCn1cnc2c(sc3ccccc32)c1=O)N1CCC(O)(c2cccc(C(F)(F)F)c2)CC1 [Compound 147, 3-(3-(4-hydroxy-4-(3-(trifluoromethyl)phenyl)piperidin-1-yl)-3-oxopropyl)benzo[4,5]thieno[3,2-d]pyrimidin-4(3H)-one]",Emax,read-out: Emax,160%
same,EC50,,7720 nM
"Cc1ccc2[nH]c3c(=O)n(CCC(=O)N4CCC(O)(c5cccc(C(F)(F)F)c5)CC4)cnc3c2c1 [Compound 165, 3-(3-(4-hydroxy-4-(3-(trifluoromethyl)phenyl)piperidin-1-yl)-3-oxopropyl)-8-methyl-3,5-dihydro-4H-pyrimido[5,4-b]indol-4-one]",Emax,read-out: Emax,157%
same,EC50,,2490 nM
Cc1ccc2[nH]c3c(=O)n(CCC(=O)N4CCN(c5ccc(F)cc5)CC4)cnc3c2c1 [Compound 33],Emax,read-out: Emax,123%
"O=C(CCn1cnc2c([nH]c3ccc(C(F)(F)F)cc32)c1=O)N1CCN(c2cccc(C(F)(F)F)c2)CC1 [Compound 6, 3-(3-oxo-3-(4-(3-(trifluoromethyl)phenyl)piperazin-1-yl)propyl)-8-(trifluoromethyl)-3,5-dihydro-4H-pyrimido[5,4-b]indol-4-one]",Emax,read-out: Emax,208%
same,EC50,,1030 nM
"Cc1ccc2[nH]c3c(=O)n(CCC(=O)NCc4cccc(O)c4)cnc3c2c1 [Compound 82, N-(3-hydroxybenzyl)-3-(8-methyl-4-oxo-4,5-dihydro-3H-pyrimido[5,4-b]indol-3-yl)propanamide]",Emax,read-out: Emax,123%
"Cc1ccc2[nH]c3c(=O)n(CCC(=O)N4CCN(c5cccc(C(N)=O)c5)CC4)cnc3c2c1 [Compound 28, 3-(4-(3-(8-methyl-4-oxo-4,5-dihydro-3H-pyrimido[5,4-b]indol-3-yl)propanoyl)piperazin-1-yl)benzamide]",Emax,read-out: Emax,124%
Cc1ccc2[nH]c3c(=O)n(CCC(=O)N4CCC(Cc5ccc(F)cc5)CC4)cnc3c2c1 [Compound 164],EC50,,2320 nM
"O=C1CCCCN1CCCN1CCSc2ccc(C(F)(F)F)cc21 [Compound 194, 1-(3-(6-(trifluoromethyl)-2,3-dihydro-4H-benzo[b][1,4]thiazin-4-yl)propyl)piperidin-2-one]",Emax,read-out: Emax,139%
O=C(N[C@@H](Cc1ccc(F)cc1)C(=O)O)OCC1c2ccccc2-c2ccccc21 [Compound 141],Emax,read-out: Emax,204%
same,EC50,,4070 nM
"O=C(CCn1cnc2c([nH]c3ccc(C(F)(F)F)cc32)c1=O)NCc1cccc(C(F)(F)F)c1 [Compound 71, 3-(4-oxo-8-(trifluoromethyl)-4,5-dihydro-3H-pyrimido[5,4-b]indol-3-yl)-N-(3-(trifluoromethyl)benzyl)propanamide]",Emax,read-out: Emax,142%
"Cc1ccc2[nH]c3c(=O)n(CCC(=O)N(C)CCNc4cccc(C(F)(F)F)c4)cnc3c2c1 [Compound 91, N-methyl-3-(8-methyl-4-oxo-4,5-dihydro-3H-pyrimido[5,4-b]indol-3-yl)-N-(2-((3-(trifluoromethyl)phenyl)amino)ethyl)propanamide]",Emax,read-out: Emax,140%
same,EC50,,3720 nM
O=C(Cn1cnc2c(oc3ccccc32)c1=O)N1CCN(c2cccc(C(F)(F)F)c2)CC1 [Compound 58],Emax,read-out: Emax,147%
"Cc1ccc2c(c1)[nH]c1c(=O)n(CCC(=O)N3CCN(c4ccc(Cl)c(Cl)c4)CC3)cnc12 [Compound 19, 3-(3-(4-(3,4-dichlorophenyl)piperazin-1-yl)-3-oxopropyl)-7-methyl-3,5-dihydro-4H-pyrimido[5,4-b]indol-4-one]",Emax,read-out: Emax,145%
same,EC50,,2000 nM
"Cc1ccc2oc3c(=O)n(CCC(=O)NCc4cccc(C(F)(F)F)c4)cnc3c2c1 [Compound 87, 3-(8-methyl-4-oxobenzofuro[3,2-d]pyrimidin-3(4H)-yl)-N-(3-(trifluoromethyl)benzyl)propanamide]",Emax,read-out: Emax,146%
"Cc1ccc2c(c1)[nH]c1c(=O)n(CCC(=O)N3CCN(c4cc(Cl)ccc4Cl)CC3)cnc12 [Compound 14, 3-(3-(4-(2,5-dichlorophenyl)piperazin-1-yl)-3-oxopropyl)-7-methyl-3,5-dihydro-4H-pyrimido[5,4-b]indol-4-one]",Emax,read-out: Emax,152%
same,EC50,,2440 nM
"Cc1ccc2nc3c(=O)n(CCC(=O)N4CCN(c5cccc(C(F)(F)F)c5)CC4)cnc3cc2c1 [Compound 138, 8-methyl-3-(3-oxo-3-(4-(3-(trifluoromethyl)phenyl)piperazin-1-yl)propyl)pyrimido[5,4-b]quinolin-4(3H)-one]",Emax,read-out: Emax,146%
same,EC50,,1160 nM
COc1cccc(N2CCN(C(=O)Cn3cnc4c([nH]c5ccc(C)cc54)c3=O)CC2)c1 [Compound 45],Emax,read-out: Emax,158%
same,EC50,,1220 nM
"COC(=O)CCC(=O)OCCN1CCN(CCCN2c3ccccc3Sc3ccc(C(F)(F)F)cc32)CC1 [Compound 184, methyl (2-(4-(3-(2-(trifluoromethyl)-10H-phenothiazin-10-yl)propyl)piperazin-1-yl)ethyl) Succinate]",Emax,,176%
"Cc1ccc2[nH]c3c(=O)n(CCC(=O)NCCNc4ccc5c(c4)CCCC5)cnc3c2c1 [Compound 131, 3-(8-methyl-4-oxo-4,5-dihydro-3H-pyrimido[5,4-b]indol-3-yl)-N-(2-((5,6,7,8-tetrahydronaphthalen-2-yl)amino)ethyl)propanamide]",Emax,read-out: Emax,193%
"O=C1CCc2ccc(OCCCCCN3c4ccccc4Sc4ccc(C(F)(F)F)cc43)cc2N1 [Compound 206, 7-((5-(2-(trifluoromethyl)-10H-phenothiazin-10-yl)pentyl)oxy)-3,4-dihydroquinolin-2(1H)-one]",Emax,read-out: Emax,165%
same,EC50,,1450 nM
"Cc1cccc2c1[nH]c1c(=O)n(CCC(=O)N3CCN(c4cccc(C(F)(F)F)c4)CC3)cnc12 [Compound 23, 6-methyl-3-(3-oxo-3-(4-(3-(trifluoromethyl)phenyl)piperazin-1-yl)propyl)-3,5-dihydro-4H-pyrimido[5,4-b]indol-4-one]",Emax,read-out: Emax,121%
"Cc1ccc2[nH]c3c(=O)n(CCC(=O)N4CCN(c5cc(Cl)ccc5Cl)CC4)cnc3c2c1 [Compound 2, 3-(3-(4-(2,5-dichlorophenyl)piperazin-1-yl)-3-oxopropyl)-8-methyl-3,5-dihydro-4H-pyrimido[5,4-b]indol-4-one]",Emax,read-out: Emax,149%
same,EC50,,2050 nM
COc1cc2[nH]c3c(=O)n(CC(=O)NCc4cccc(C(F)(F)F)c4)cnc3c2cc1OC [Compound 113],Emax,read-out: Emax,120%
Cc1ccc2[nH]c3c(=O)n(CC(=O)NCCCN4CCN(Cc5ccccc5)CC4)ncc3c2c1 [Compound 55],Emax,read-out: Emax,159%
same,EC50,,10600 nM
COc1ccc2c(c1)N1CCN(c3ccc(C)cc3)CC1C(C(=O)Nc1ccccc1)C2 (stereo not shown) [Compound 140],Emax,read-out: Emax,187%
"O=C1CCCCN1CCCCCCN1C(=O)CSc2ccc(C(F)(F)F)cc21 [Compound 195, 4-(6-(2-oxopiperidin-1-yl)hexyl)-6-(trifluoromethyl)-2H-benzo[b][1,4]thiazin-3(4H)-one]",Emax,read-out: Emax,136%
"Cc1ccc2ncc3c(=O)n(CCCC(=O)N4CCC(Cc5ccc(F)cc5)CC4)cnc3c2c1 [Compound 218, 3-(4-(4-(4-fluorobenzyl)piperidin-1-yl)-4-oxobutyl)-9-methylpyrimido[5,4-c]quinolin-4(3H)-one]",EC50,,617 nM
"Cc1ccc2[nH]c3c(=O)n(CCCCN4CCN(c5cccc(C(F)(F)F)c5)CC4)cnc3c2c1 [Formate salt of 48, 8-methyl-3-(4-(4-(3-(trifluoromethyl)phenyl)piperazin-1-yl)butyl)-3,5-dihydro-4H-pyrimido[5,4-b]indol-4-one]",Emax,read-out: Emax,210%
same,EC50,,1060 nM
"O=C(CCn1cnc2c(oc3ccc(F)cc32)c1=O)N1CCN(c2cccc(C(F)(F)F)c2)CC1 [Compound 148, 8-fluoro-3-(3-oxo-3-(4-(3-(trifluoromethyl)phenyl)piperazin-1-yl)propyl)benzofuro[3,2-d]pyrimidin-4 (3H)-one]",Emax,read-out: Emax,151%
same,EC50,,1990 nM
Cc1ccc2[nH]c3c(=O)n(CCC(=O)N4CCN(c5ccccc5F)CC4)cnc3c2c1 [Compound 40],Emax,read-out: Emax,125%
"COC(=O)C1CCCCN1CCCN1c2ccccc2Sc2ccccc21 (stereo not shown) [Formate salt of 191, methyl 1-(3-(10H-phenothiazin-10-yl)propyl)piperidin-2-carboxylate]",Emax,read-out: Emax,131%
same,EC50,,5600 nM
"Cc1ccc2c(c1)-c1ncn(CCC(=O)N3CCN(c4cccc(C(F)(F)F)c4)CC3)c(=O)c1CC2 [Compound 215, 9-methyl-3-(3-oxo-3-(4-(3-(trifluoromethyl)phenyl)piperazin-1-yl)propyl)-5,6-dihydrobenzo[h]quinazolin-4(3H)-one]",Emax,read-out: Emax,173%
same,EC50,,1130 nM
"O=C1CCCCN1CCCCCCN1CCSc2ccc(C(F)(F)F)cc21 [Compound 193, 1-(6-(6-(trifluoromethyl)-2,3-dihydro-4H-benzo[b][1,4]thiazin-4-yl)hexyl)piperidin-2-one]",Emax,read-out: Emax,178%
same,EC50,,7490 nM
"O=C(CCn1cnc2c([nH]c3ccc(Br)cc32)c1=O)N1CCN(c2cccc(C(F)(F)F)c2)CC1 [Compound 12, 8-bromo-3-(3-oxo-3-(4-(3-(trifluoromethyl)phenyl)piperazin-1-yl)propyl)-3,5-dihydro-4H-pyrimido[5,4-b]indol-4-one]",Emax,read-out: Emax,205%
"COC(=O)c1cccc(CNC(=O)CCn2cnc3c([nH]c4ccc(C)cc43)c2=O)c1 [Compound 83, methyl 3-((3-(8-methyl-4-oxo-4,5-dihydro-3H-pyrimido[5,4-b]indol-3-yl)propanamido)methyl)benzoate]",Emax,read-out: Emax,126%
CC(C)c1ccc(CNC(=O)CCn2cnc3c([nH]c4ccc(F)cc43)c2=O)cc1 [Compound 118],Emax,read-out: Emax,122%
